Holding throughout (assay type): cell-based
Assay [1] concerns the target T1, human TLR8 (Homo sapiens, UniProt Q9NR97).
T1 construct: host or cells: HEK-Blue cells (HEK293-derived reporter line)
T1 sequence (Q9NR97 27-1041): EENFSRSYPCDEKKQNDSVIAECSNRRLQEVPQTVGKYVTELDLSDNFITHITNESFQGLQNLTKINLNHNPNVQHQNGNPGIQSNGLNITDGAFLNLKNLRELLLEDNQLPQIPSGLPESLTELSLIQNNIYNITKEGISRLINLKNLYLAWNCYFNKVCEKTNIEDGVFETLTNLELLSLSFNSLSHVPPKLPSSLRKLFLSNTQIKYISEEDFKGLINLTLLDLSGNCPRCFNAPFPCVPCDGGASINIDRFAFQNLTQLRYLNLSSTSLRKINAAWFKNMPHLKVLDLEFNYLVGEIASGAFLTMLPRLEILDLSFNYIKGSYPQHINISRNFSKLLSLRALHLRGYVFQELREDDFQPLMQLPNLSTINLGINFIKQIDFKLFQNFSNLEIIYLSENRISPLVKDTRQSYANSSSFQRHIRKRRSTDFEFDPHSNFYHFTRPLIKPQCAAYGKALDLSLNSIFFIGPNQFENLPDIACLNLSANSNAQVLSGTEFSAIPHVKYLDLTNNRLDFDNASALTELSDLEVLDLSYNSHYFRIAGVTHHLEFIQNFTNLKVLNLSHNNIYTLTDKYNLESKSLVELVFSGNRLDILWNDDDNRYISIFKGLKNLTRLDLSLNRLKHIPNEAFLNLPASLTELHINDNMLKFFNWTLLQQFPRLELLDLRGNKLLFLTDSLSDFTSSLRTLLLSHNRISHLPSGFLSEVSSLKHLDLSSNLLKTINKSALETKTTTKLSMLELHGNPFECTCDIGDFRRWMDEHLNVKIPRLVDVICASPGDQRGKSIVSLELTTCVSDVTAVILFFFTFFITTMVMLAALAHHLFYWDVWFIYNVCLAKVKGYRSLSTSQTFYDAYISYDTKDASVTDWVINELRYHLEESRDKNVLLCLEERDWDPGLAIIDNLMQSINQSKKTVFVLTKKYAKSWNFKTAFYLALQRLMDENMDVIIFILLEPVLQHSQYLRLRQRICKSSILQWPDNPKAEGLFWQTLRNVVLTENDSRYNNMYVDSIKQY
Put plainly: TLR8 inhibition reporter assay (HEK-Blue cells, SEAP reporter, R848 stimulation). Conditions: HEK-Blue cells overexpressing human TLR8, SEAP reporter, R848 15.9 μM. The method, boiled down:
(§1)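 Cells seeded per well (15000 TLR7, 20,000 TLR8, 25,000 TLR9); compound added over 0.05 nM–50 μM for 30 min at room temperature; agonist added (TLR7 gardiquimod 7.5 μM, TLR8 R848 15.9 μM, TLR9 ODN2006 5 nM); 22 h at 37 °C; SEAP measured; percent inhibition calculated.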
On the technique in general: In a reporter assay the amount or activity of a reporter protein is the signal.

Assay [2] deals with T2, human TLR7 (Homo sapiens, UniProt Q9NYK1).
T2 construct: host or cells: HEK-Blue cells (HEK293-derived reporter line)
T2 sequence (Q9NYK1 27-1049): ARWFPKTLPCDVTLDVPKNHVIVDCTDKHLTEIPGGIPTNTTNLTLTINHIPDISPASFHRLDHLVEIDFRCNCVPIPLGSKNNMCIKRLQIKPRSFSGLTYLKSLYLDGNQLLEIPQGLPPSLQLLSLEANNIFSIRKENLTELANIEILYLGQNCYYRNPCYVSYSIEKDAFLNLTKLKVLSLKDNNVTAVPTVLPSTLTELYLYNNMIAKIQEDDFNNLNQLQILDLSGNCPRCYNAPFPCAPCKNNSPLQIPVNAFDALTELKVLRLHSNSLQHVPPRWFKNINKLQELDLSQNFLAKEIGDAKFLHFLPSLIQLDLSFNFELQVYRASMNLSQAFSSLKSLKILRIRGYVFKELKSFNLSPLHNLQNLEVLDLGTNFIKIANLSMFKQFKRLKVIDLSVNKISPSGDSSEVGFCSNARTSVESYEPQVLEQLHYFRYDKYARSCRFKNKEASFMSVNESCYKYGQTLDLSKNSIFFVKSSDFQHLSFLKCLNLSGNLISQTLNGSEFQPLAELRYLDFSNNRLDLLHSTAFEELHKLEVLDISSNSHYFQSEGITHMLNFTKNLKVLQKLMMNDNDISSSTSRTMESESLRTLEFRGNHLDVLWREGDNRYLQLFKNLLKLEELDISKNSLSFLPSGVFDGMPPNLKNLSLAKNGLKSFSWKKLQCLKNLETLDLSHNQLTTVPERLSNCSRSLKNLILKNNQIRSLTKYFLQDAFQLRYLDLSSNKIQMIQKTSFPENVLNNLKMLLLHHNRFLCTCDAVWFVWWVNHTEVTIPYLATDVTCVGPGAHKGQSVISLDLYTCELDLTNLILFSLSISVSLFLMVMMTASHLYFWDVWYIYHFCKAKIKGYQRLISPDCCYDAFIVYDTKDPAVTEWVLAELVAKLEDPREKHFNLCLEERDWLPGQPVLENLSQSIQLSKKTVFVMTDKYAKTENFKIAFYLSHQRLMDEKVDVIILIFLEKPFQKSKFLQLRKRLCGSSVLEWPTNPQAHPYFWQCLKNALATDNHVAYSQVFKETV
Put plainly: TLR7 inhibition reporter assay (HEK-Blue cells, SEAP reporter, gardiquimod stimulation). Conditions: HEK-Blue cells overexpressing human TLR7, SEAP reporter, gardiquimod 7.5 μM. In a few lines: as §1

For assay [3], the target named is T3, human TLR9 (Homo sapiens, UniProt Q9NR96).
T3 construct: host or cells: HEK-Blue cells (HEK293-derived reporter line)
T3 sequence (Q9NR96 26-1032): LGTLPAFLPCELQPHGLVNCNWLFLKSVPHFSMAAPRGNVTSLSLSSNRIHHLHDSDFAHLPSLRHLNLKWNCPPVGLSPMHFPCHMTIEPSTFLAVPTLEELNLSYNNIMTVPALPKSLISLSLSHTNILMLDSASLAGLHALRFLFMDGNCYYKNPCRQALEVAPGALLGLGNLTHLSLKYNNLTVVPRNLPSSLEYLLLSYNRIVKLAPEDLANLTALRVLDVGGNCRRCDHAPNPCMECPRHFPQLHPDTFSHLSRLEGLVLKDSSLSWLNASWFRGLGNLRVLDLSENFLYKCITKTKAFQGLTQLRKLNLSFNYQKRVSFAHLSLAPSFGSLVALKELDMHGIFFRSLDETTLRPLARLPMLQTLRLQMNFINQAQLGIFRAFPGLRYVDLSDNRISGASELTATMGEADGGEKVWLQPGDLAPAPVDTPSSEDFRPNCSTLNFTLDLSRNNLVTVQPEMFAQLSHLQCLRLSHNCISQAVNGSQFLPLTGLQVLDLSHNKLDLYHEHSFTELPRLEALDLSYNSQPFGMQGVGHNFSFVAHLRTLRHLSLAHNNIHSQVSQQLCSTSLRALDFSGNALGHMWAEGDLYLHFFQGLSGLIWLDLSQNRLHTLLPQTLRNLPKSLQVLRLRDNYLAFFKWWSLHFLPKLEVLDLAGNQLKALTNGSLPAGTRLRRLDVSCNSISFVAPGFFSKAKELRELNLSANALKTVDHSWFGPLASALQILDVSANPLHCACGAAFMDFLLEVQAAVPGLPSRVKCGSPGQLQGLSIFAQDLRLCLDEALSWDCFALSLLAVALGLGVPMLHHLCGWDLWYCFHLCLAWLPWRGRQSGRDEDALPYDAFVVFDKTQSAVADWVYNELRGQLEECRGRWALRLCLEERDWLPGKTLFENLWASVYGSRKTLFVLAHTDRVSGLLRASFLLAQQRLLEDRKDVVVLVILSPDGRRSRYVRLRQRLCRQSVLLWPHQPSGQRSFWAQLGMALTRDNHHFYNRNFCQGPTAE
As to the kind of experiment: TLR9 inhibition reporter assay (HEK-Blue cells, SEAP reporter, ODN2006 stimulation). Conditions: HEK-Blue cells overexpressing human TLR9, SEAP reporter, ODN2006 5 nM. In a few lines: as §1

Molecules are shown by their SMILES. pIC50: −log10 of the molar value.

What is called pIC50 is the IC50 on a negative log10 scale, so that one unit is a factor of ten.

For `Cc1c(-c2[nH]c3ccc(C4CCNCC4)cc3c2C(C)C)cn2ccnc2c1C` [Example 271, 6-(3-isopropyl-5-(piperidin-4-yl)-1H-indol-2-yl)-7,8-dimethylimidazo[1,2-a]pyridine], the negative logarithm of the IC50 (pIC50) in assay [1] was greater than 7.00; in assay [2] it was greater than 7.00; in assay [3] it was 6.00 to 7.00.

On to `Cc1cc(-c2[nH]c3ccc(C4CCNCC4)cc3c2C(C)C)nn2ncnc12` [Example 30, 6-(3-isopropyl-5-(piperidin-4-yl)-1H-indol-2-yl)-8-methyl-[1,2,4]triazolo[1,5-b]pyridazine], for which the negative logarithm of the IC50 (pIC50) was greater than 7.00 in assay [1], greater than 7.00 in assay [2] and 4.30 to 6.00 in assay [3].

Take `COc1c(C)c(-c2[nH]c3ccc(C4CCN(C5COC5)CC4)cc3c2C(C)C)nn2ncnc12` [Example 731, 6-(3-isopropyl-5-(1-(oxetan-3-yl)piperidin-4-yl)-1H-indol-2-yl)-8-methoxy-7-methyl-[1,2,4]triazolo[1,5-b]pyridazine]: the negative-log IC50 (pIC50) in assay [1] is greater than 7.00; in assay [2], greater than 7.00; in assay [3], 4.30 to 6.00.

For `CNCCN1CCC(c2ccc3[nH]c(-c4ccc5scnc5c4)c(C)c3c2)CC1` [compound 659], the negative logarithm of the IC50 (pIC50) in assay [1] is less than 5.51; in assay [2] it was 4.30 to 6.00; in assay [3] it was 6.00 to 7.00.

In the case of `Cc1ncc(CN2CCC(c3ccc4[nH]c(-c5ccnc6[nH]nc(C)c56)c(C(C)C)c4c3)CC2)[nH]1` [Example 872, 4-(3-isopropyl-5-(1-((2-methyl-1H-imidazol-5-yl)methyl)piperidin-4-yl)-1H-indol-2-yl)-3-methyl-1H-pyrazolo[3,4-b]pyridine], the pIC50 in assay [1] is greater than 7.00; in assay [2], 4.30 to 6.00; in assay [3], 6.00 to 7.00.

Take `COCCN1CCC(c2ccc3[nH]c(-c4cc(OC)n5ncnc5c4)c(C(C)C)c3c2)CC1` [Example 780, 7-(3-isopropyl-5-(1-(2-methoxyethyl)piperidin-4-yl)-1H-indol-2-yl)-5-methoxy-[1,2,4]triazolo[1,5-a]pyridine]: the negative logarithm of the IC50 (pIC50) is greater than 7.00 in assay [1], greater than 7.00 in assay [2] and 4.30 to 6.00 in assay [3].

For `Cc1cc(-c2[nH]c3ccc(C4CCN(CC(=O)N(C)C)CC4)cc3c2C(C)C)cc2nccnc12` [Example 395, 2-(4-(3-isopropyl-2-(8-methylquinoxalin-6-yl)-1H-indol-5-yl)piperidin-1-yl)-N,N-dimethylacetamide], the pIC50 in assay [1] is greater than 7.00; in assay [2], greater than 7.00; in assay [3], 4.30 to 6.00.

As for `Cc1c(-c2[nH]c3ccc(C4CCN(C(=O)CN(C)C)CC4)cc3c2C(C)C)cn2ccnc2c1C` [Example 549, 2-(dimethylamino)-1-(4-(2-(7,8-dimethylimidazo[1,2-a]pyridin-6-yl)-3-isopropyl-1H-indol-5-yl)piperidin-1-yl)ethan-1-one], the pIC50 in assay [1] was greater than 7.00; in assay [2], greater than 7.00; in assay [3], 6.00 to 7.00.

`Cc1c(-c2[nH]c3ccc(C4CCN(C5CCOCC5)CC4)cc3c2C(C)C)c2cccnc2n1C` [Example 691, 3-(3-isopropyl-5-(1-(tetrahydro-2H-pyran-4-yl)piperidin-4-yl)-1H-indol-2-yl)-1,2-dimethyl-1H-pyrrolo[2,3-b]pyridine]: the negative-log IC50 (pIC50) was greater than 7.00 in assay [1], greater than 7.00 in assay [2] and 4.30 to 6.00 in assay [3].

For `Cc1cc(-c2[nH]c3ccc(C4CCN(C(=O)CCN5CCC6CC65)CC4)cc3c2C(C)C)cn2nnnc12` (stereo not drawn) [Example 632, 3-(2-azabicyclo[3.1.0]hexan-2-yl)-1-(4-(3-isopropyl-2-(8-methyltetrazolo[1,5-a]pyridin-6-yl)-1H-indol-5-yl)piperidin-1-yl)propan-1-one], the values for the negative logarithm of the IC50 (pIC50) in assay [1], in assay [2] and in assay [3] were greater than 7.00, greater than 7.00 and 4.30 to 6.00, respectively.

With `Cc1nc2cc(-c3[nH]c4ccc(C5CCNCC5)cc4c3C(C)C)ccn2n1` [Example 156, 7-(3-isopropyl-5-(piperidin-4-yl)-1H-indol-2-yl)-2-methyl-[1,2,4] triazolo[1,5-a]pyridine], the negative-log IC50 (pIC50) in assay [1] is 6.00 to 7.00; in assay [2], greater than 7.00; in assay [3], 6.00 to 7.00.

The values are drawn from US11739098B2 (BRISTOL-MYERS SQUIBB COMPANY, priority 2017, dated 2023).
